According to patent publication US20220133761A1, “NEUTROPHIL APOPTOSIS INDUCED BY NANOPARTICLES FOR TREATING INFLAMMATORY DISEASES” (WASHINGTON STATE UNIVERSITY, priority 2020, published 2022):

Tests used:
LPS-challenged mice [1] = experiment: Therapeutic efficacy in sepsis mouse model (neutrophils, cytokines, MPO in blood, BALF, organs); type: in vivo
Description: Adult CD-1 mice were i.p. administrated with LPS (50 mg/kg). 4 hours later, the mice were grouped randomly (10 mice per group) and i.v. injected with PBS, free DOX and DOX-hyd-BSA NPs (equal to 0.2 mg kg^−1 of free DOX), respectively. The healthy mice were used as […]. At predetermined time points (16 h and 72 h after LPS challenge), mouse BALF, blood and major organs were collected. Cell number and inflammatory factors (TNF-α, IL-6 and IL-1β) in BALF were determined by hemocytometer and ELISA, respectively as aforementioned. Blood was collected as described above. The plasma was harvested for ELISA assay after the blood was centrifuged at 1500 g for 20 min. Cell number was counted as above. The organs were homogenized with PBS (100 mg/mL) to obtain the pipettable homogenate for myeloperoxidase (MPO) activity and ELISA assay.

[2] = pH-triggered DOX release, UV-Vis of supernatants after 2 h incubation; type: physicochemical
Description: To confirm the pH-triggered drug release property, BSA NPs, DOX-ab-BSA NPs and DOX-hyd-BSA NPs were incubated in PBS at pH 7.4, 6.5 and 5.0 for 2 h, respectively. After centrifugation, the supernatants were collected to determine DOX concentrations using a UV-Vis spectrometer.

[3] = test system: heart, liver, spleen, lung and kidney; experiment: Toxicity by histological analysis (H&E staining of major organs); conditions: 0.2 mg/kg DOX
Description: After different treatments (healthy, PBS, 4 mg/kg of free DOX, 0.2 mg/kg of free DOX, DOX-hyd-BSA NPs and DOX-ab-BSA NPs, equal to 0.2 mg/kg of DOX for NPs), mice were sacrificed by carbon dioxide asphyxiation. […] The samples were imaged by a microscope (ZEISS, Observer. Z1, USA).

LPS-challenged mice [4] = experiment: Acute lung inflammation mouse model (i.t. LPS), BALF neutrophils and cytokines; type: in vivo; conditions: vs free DOX and DOX-ab-BSA NPs
Description: Mice were anesthetized, and placed in a supine position head up on a board tilted at 15°. Afterwards, 10 mg/kg of LPS in HBSS was intratracheally (i.t.) administrated to mice with a FMJ-250 High Pressure Syringe (Penn-Century, Wyndmoor, Pa.). Mice were held upright for 2 min after administration.
Mice were challenged with i.t. injection of LPS (10 mg/kg). […] At 20 h post-drug administration, the mice were anesthetized with i.v. injection of a mixture of ketamine and xylazine. The BALF was collected by inserting a needle into the upper trachea. 0.9 mL HBSS was infused into the lungs and carefully withdrawn to obtain BALF. This process was repeated three times. BALF was collected and centrifuged at 350 g for 10 min at 4° C. The supernatant was collected for ELISA analysis. Afterwards, the cells were re-suspended in 0.5 ml of HBSS. The total cell number was determined with a hemocytometer.
Flow cytometry was utilized to quantify neutrophils in BALF. In detail, neutrophils from BALF were washed with 1 mL of 5% BSA in HBSS and centrifuged at 350 g for 10 min at 4° C. for three times, which was finally re-suspended in 400 μL of 5% BSA in HBSS. 3 μL of Alexa Fluor-647-labeled anti-mouse LY-6G antibody was added and incubated for 20 min in the dark, followed by washing with 1 mL of 0.1% BSA in HBSS under centrifugation for three times. Samples were then re-suspended in 400 μL 0.1% BSA in HBSS and filtered by a 100 μm filter, and analyzed by flow cytometer (Accuri C6 flow cytometer, BD Biosciences, San Jose, Calif.).
BALF was collected and centrifuged at 350 g for 10 min as described above. Supernatants from BALF were harvested for ELISA analysis. Concentrations of TNF-α, IL-6 and IL-1β in supernatants were determined with commercial ELISA kits according to the manufacturer's instructions (Biolegend, San Diego, Calif.). The triplicate experiment was conducted.

activated neutrophils = experiment: Nanoparticle uptake by blood leukocytes in LPS-induced inflammation mouse model (CLSM, flow cytometry); type: in vivo
Description: To investigate cell uptake specificity of BSA NPs in circulation, blood cells were isolated and studied using confocal laser scanning microscopy (CLSM) and flow cytometry. Briefly, 4 h after LPS challenge (i.p., 20 mg kg^−1), DOX-hyd-BSA NPs were intravenously injected into mice. Healthy mice were used as control. 3 h later, the whole blood was harvested in a heparinized tube from the heart. Neutrophils in blood were isolated by Pluriselect anti-mouse LY-6G S-pluribeads according to the manufacturer's protocol (Pluriselect, Spring Valley, Calif.). The cells were fixed with 2 mL of 4% paraformaldehyde for 30 min and were stained with Alexa Fluor 488-labeled anti-mouse LY-6G antibody. A slide smear of cell solution was prepared by 7620 Cytopro Cytocentrifuge (ELITech, Princeton, N.J.). A drop of Prolong Gold Antifade reagent with DAPI (Invitrogen, Eugene, Oreg.) was added on the cells, and a coverslip was applied on the slide. 4 h later, the cells were observed using a Nikon A1R^+ confocal laser scanning microscope.
Flow cytometry to quantify neutrophil uptake of nanoparticles was also utilized. Blood leukocytes were isolated to determine the specificity of uptake of NPs in blood. In brief, 3 mL Histopaque 10771 was carefully layered on top of 3 mL Histopaque 11191 in a 15 mL centrifuge tube. […]

[5] = first 16 h after LPS challenge, vs PBS
[6] = 0.2 mg/kg (DOX) i.v. 4 h after i.t. LPS

Substance: DOX-hyd-BSA NPs
- inflammation in other organs (MPO, TNF-α, IL-6, IL-1β) (LPS-challenged mice [1]; 16 h and 72 h post-LPS challenge, vs PBS): significantly decreased inflammation in other organs
- neutrophil number and cytokine contents (LPS-challenged mice [1]; 72 h after LPS challenge): resumed to their levels as in healthy mice
- cytokines in blood and lung BALF (LPS-challenged mice [1]; [5]): decreased accordingly
- neutrophils in blood and lung BALF (LPS-challenged mice [1]; [5]): dramatically decreased
- neutrophil production in the bone marrow (LPS-challenged mice [1]; neutrophil counts compared with healthy mice): did not impair neutrophil production in the bone marrow
- DOX absorption at 480 nm in supernatant ([2]; pH 5.0 and 6.5, 2 h incubation in PBS): Absorption of DOX molecules at 480 nm was observed
- DOX in supernatant ([2]; pH 7.4, 2 h incubation in PBS): did not observe DOX in the supernatant
- tissue or cellular damage in H&E sections of heart, liver, spleen, lung, kidney [3]: did not show any noticeable signs of tissue or cellular damage
- neutrophils in BALF (LPS-challenged mice [4]; 0.2 mg/kg (DOX) i.v. 4 h after i.t. LPS 10 mg/kg): surprisingly and dramatically shown to decrease compared to controls
- IL-1β in BALF (LPS-challenged mice [4]; [6]): decreased
- IL-6 in BALF (LPS-challenged mice [4]; [6]): decreased
- TNF-α in BALF (LPS-challenged mice [4]; [6]): decreased
- neutrophil uptake of NPs (activated neutrophils; 4 h after i.p. LPS 20 mg/kg, blood 3 h after i.v. NPs): neutrophil uptake was observed
- uptake by T cells, monocytes and natural killer (NK) cells in blood (activated neutrophils; LPS-challenged mice, flow cytometry): did not take up BSA NPs
